Source: patent publication US20230077896A1, “MICROBIAL LIPID PRODUCTION UTILIZING POST-FERMENTATION INDUSTRIAL WASTE STREAM FEEDSTOCKS” (C16 Biosciences, Inc., priority 2020, published 2023)
Read-outs that look alike come from different tables or passages of the source.

Tests used:
[1] = system: Pseudoperonospora cubensis; conditions: Zhu et al. 2018; cited from earlier work
Trichophyton rubrum = conditions: Kamp et al., Mycoses 2005; cited from earlier work
Aspergillus fumigatus = conditions: Ryan et al. 2011; cited from earlier work
Saccharomyces cerevisiae = conditions: concentrations in the mM range; cited from earlier work
Eutypa lata = conditions: as low as; lowered growth rate even after renewal of culture medium; cited from earlier work
[2] = system: ethanol-producing yeast and bacteria; conditions: as low as; cited from earlier work
Trichosporon cutaneuin = conditions: Wang et al. 2016; cited from earlier work
[3] = system: Y. lipolytica strain poll g; test: 4-hydroxybenzaldehyde spike-in titration in YPG media, Y. lipolytica; format: cell-based, Yarrowia lipolytica; conditions: concentrations tested 1 μM-100 mM
[4] = system: Rhodosporidium toruloides; conditions: Hu et al. 2009; cited from earlier work
R. toruloides strain A = test: 4-hydroxybenzaldehyde spike-in titration in YPG media, R. toruloides; format: cell-based, Rhodosporidium toruloides
S. cerevisiae [5] = test: Inhibition of ethanol production by S. cerevisiae (Banergee et al.); format: cell-based, Saccharomyces cerevisiae; conditions: molar conversion in parentheses
Protocol: In some embodiments, the feedstock comprises furfural. Furfural is also known as furan-2-carboxaldehyde, feral, furfuraldehyde, 2-furaldehyde, and pyromucic aldehyde. Within the art, furfural is a well-known and potent inhibitor of microbial fermentation. […] See also, Sitepu et al., “Carbon source utilization and inhibitor tolerance of 45 oleaginous yeast species,” J Ind Microbiol Biotechnol 2014;41(7):1061-1070. In some embodiments, the feedstock comprises at least 10 μM, 20 μM, 30 μM, 40 μM, 50 μM, 60 μM, 70 μM, 80 μM, 90 μM, 100 μM, 200 μM, 300 μM, 400 μM, 500 μM, 600 μM, 700 μM, 800 μM, 900 μM, 1 mM, 2 mM, 3 mM, 4 mM, 5 mM, 6 mM, 7 mM, 8 mM, 9 mM, 10 mM, 20 mM, 30 mM, 40 mM, 50 mM, 60 mM, 70 mM, 80 mM, 90 mM, or 100 mM furfural, or any ranges or subranges therebetween. In some embodiments, the feedstock comprises at least 10 μM furfural.

S. cerevisiae [6] = conditions: cited from earlier work
microorganism growth = conditions: tens of micromolar, e.g.; cited from earlier work
Pantoea agglomerans = conditions: at concentrations of 10 ppm, single inhibitor; cited from earlier work
Fusarium avenaceum = conditions: cited from earlier work
[7] = system: R. toruloides strain A, R. toruloides strain B; test: Batch fermentation with glycerol supplement, R. toruloides; format: cell-based, Rhodosporidium toruloides; conditions: 50 g/L glycerol added to 30% corn stillage syrup feedstock, 6 days
Excerpt: (§1) For the purposes of this example, the exemplary feedstock employed was a 30% corn stillage syrup-based feedstock, comprising 30% v/v corn stillage syrup, with insoluble components removed via centrifugation, diluted in deionized water.
(§2) Four strains of oleaginous microorganisms were selected to investigate the potential of the exemplary feedstock to support the growth of oleaginous microorganisms: R. toruloides strain A, R. toruloides strain B, Y. lipolytica strain po 1 g, and L. starkeyi strain CBS 1807. As a control, a canonical non-oleaginous yeast, P. pastoris strain X33, was included for comparison.
(§3) Fermentations were run in batch format for 6 days. Dry cell weight, oil titer and lipid content were evaluated as described in Example 5.
(§4) 50 g/L glycerol was added to the feedstock and fermentations were again run for 6 days. Dry cell weight and oil titer were evaluated and compared to the results of the batch fermentation.

[8] = system: Y. lipolytica strain po 1 g; test: Batch fermentation with glycerol supplement, Y. lipolytica; format: cell-based, Yarrowia lipolytica; conditions: 50 g/L glycerol added to 30% corn stillage syrup feedstock, 6 days
Excerpt: as §1, §2, §3, §4

[9] = system: L. starkeyi strain CBS 1807; test: Batch fermentation with glycerol supplement, L. starkeyi; format: cell-based, Lipomyces starkeyi; conditions: 50 g/L glycerol added to 30% corn stillage syrup feedstock, 6 days
Excerpt: as §1, §2, §3, §4

In the case of `O=C1CC[C@@H](C(=O)O)N1` [Pyroglutamic acid], the “inhibitor of fungal species” value [1] is listed as “known inhibitor”.

For `NCC(=O)CCC(=O)O` [5-aminolevulinic acid], the “concentration showing inhibition of Trichophyton rubrum” value (Trichophyton rubrum) is listed as “above 10 mM”.

In the case of `O=C(O)C(O)Cc1ccc(O)cc1` (centres unmarked) [Hydroxyphenyllactic acid, 2-Hydroxy-3-(p-hydroxyphenyl)propionic acid], the inhibitory concentration (Aspergillus fumigatus) is given as 5 mg/mL.

For `O=C(O)c1ccccc1O` [salicylic acid], the “effects against Saccharomyces cerevisiae” value (Saccharomyces cerevisiae) is given as “fungicidal effects”, the “concentration causing fungistatic effects in Eutypa lata” value (Eutypa lata) is given as 1 mM and the inhibitory concentration (Aspergillus fumigatus) is given as 0.25 mg/mL.

In the case of `O=Cc1ccc(CO)o1` [HMF, 5-(hydroxymethyl)furfural], the “concentration of significant inhibition of growth and ethanol production” value [2] is listed as 8 mM.

In the case of `O=Cc1ccc(O)cc1` [4-hydroxybenzaldehyde], the “concentration showing inhibition of Trichosporon cutaneum” value (Trichosporon cutaneuin) is listed as 16 mM, the “effect on growth of the Y. lipolytica strain” value [3] is listed as “no statistically significant effect” and the “effect on oil production of the Y. lipolytica strain” value [3] is listed as “no statistically significant effect”. The “concentration showing inhibition of Rhodosporidium toruloides” value [4] was 9 mM, the “increase in oil titer as compared to the no inhibitor control” value (R. toruloides strain A; 100 μM condition) was “over 50%” and the “increase in oil titer as compared to the no inhibitor control” value (R. toruloides strain A; 10 mM condition) was “over 50%”. The “growth (DCW) of the R. toruloides strain” value (R. toruloides strain A; 100 mM inhibitor in YPG media) was “inhibited altogether”, the “growth (DCW) of the R. toruloides strain” value (R. toruloides strain A; all concentrations tested (1 μM-10 mM) except 100 mM, YPG media, vs no inhibitor control) was “unaffected” and the “effect on oil titer of R. toruloides” value (R. toruloides strain A; increasing concentrations between 1 μM and 10 mM) was “lipogenic effect”.

In the case of `O=Cc1ccco1` [furfural], the “concentration inhibiting ethanol production” value (S. cerevisiae [5]; as low as) is given as ~10 mM, the “concentration of complete inhibition of ethanol production” value (S. cerevisiae [5]; complete inhibition) is given as ~40 mM and the “concentration inhibiting ethanol production” value (S. cerevisiae [6]; as low as) is given as 0.5 g/L. The “concentration of complete inhibition of ethanol production” value (S. cerevisiae [6]; complete inhibition) was 4 g/L.

For `CC1(O)CCOC(=O)C1` (racemic) [mevalonic acid lactone, 4-Hydroxy-4-methyltetrahydro-2H-pyran-2-one], the “concentration at which it can act as an inhibitor for microorganism growth” value (microorganism growth) is given as 67 µM, the “inhibition of growth of Pantoea agglomerans” value (Pantoea agglomerans) is given as 10-15% and the “growth of Fusarium avenaceum” value (Fusarium avenaceum) is given as “inhibit the growth”.

For `OCC(O)CO` [glycerol], the “growth (DCW) with added glycerol vs without” value [7] was “dramatically increased”, the “oil production with added glycerol vs without” value [7] was “dramatically increased” and the “growth (DCW) with added glycerol” value [8] was “significantly less growth”. The “oil titer with added glycerol” value [8] was “only marginally improved”, the “growth (DCW) with added glycerol” value [9] was “significantly less growth” and the “oil titer with added glycerol” value [9] was “only marginally improved”.
